Experimental data from patent US6809065B2, “Herbicide containing substituted pyrazole derivative as active ingredient” (SDS Biotech K.K., priority 2001, dated 2004).

What was measured:
Scirpus juncoides = experiment: Paddy field treatment (Test Example 3); format: in vivo; details: paddy pot, submerged 4 cm, dropped on water surface 10th day after transplantation, 1 kg active ingredient per hectare, evaluated 21st day
How it was run: (§1)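 Weeds sown in puddled paddy soil under 4 cm water, with two-leaf Koshihikari rice transplanted at 3 cm depth. On day 10 after transplanting, wettable powder applied to the water surface at 1 kg active ingredient per hectare. Herbicidal effect and crop safety scored on an index 21 days later.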

Ammannia multiflora = experiment: Paddy field treatment (Test Example 3); format: in vivo; details: paddy pot, submerged 4 cm, dropped on water surface 10th day after transplantation, 1 kg active ingredient per hectare, evaluated 21st day
How it was run: as §1

Monochoria vaginalis = experiment: Paddy field treatment (Test Example 3); format: in vivo; details: paddy pot, submerged 4 cm, dropped on water surface 10th day after transplantation, 1 kg active ingredient per hectare, evaluated 21st day
How it was run: as §1

soybean (Glycine max) [1] = experiment: Upland field foliage treatment (Test Example 1), crop; format: in vivo; details: foliage treatment 14th day after sowing, 1 kg active ingredient per hectare, evaluated 21st day, lower index = higher safety
How it was run: (§2)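 Weeds and crops were sown in upland soil under about 1 cm cover, and a wettable powder diluted in water was sprayed on the foliage 14 days after sowing at 1 kg active ingredient per hectare. Scoring was done 21 days after application on an index scale, where higher weed scores mean stronger herbicidal effect and lower crop scores mean greater crop safety.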

[2] = test system: wheat (Triticum aestivum); experiment: as above; format: in vivo; details: foliage treatment 14th day after sowing, 1 kg active ingredient per hectare, evaluated 21st day, lower index = higher safety
How it was run: as §2

Stellaria media [3] = experiment: Upland field foliage treatment (Test Example 1); format: in vivo; details: foliage treatment 14th day after sowing, wettable powder, 1 kg active ingredient per hectare, evaluated 21st day after application
How it was run: as §2

Chenopodium album [4] = experiment: Upland field foliage treatment (Test Example 1); format: in vivo; details: foliage treatment 14th day after sowing, wettable powder, 1 kg active ingredient per hectare, evaluated 21st day after application
How it was run: as §2

Setaria viridis [5] = experiment: Upland field foliage treatment (Test Example 1); format: in vivo; details: foliage treatment 14th day after sowing, wettable powder, 1 kg active ingredient per hectare, evaluated 21st day after application
How it was run: as §2

Digitaria adscendens [6] = experiment: Upland field foliage treatment (Test Example 1); format: in vivo; details: foliage treatment 14th day after sowing, wettable powder, 1 kg active ingredient per hectare, evaluated 21st day after application
How it was run: as §2

[7] = test system: rice (Oryza sative, variety: Koshihikari); experiment: Paddy field treatment (Test Example 3), crop; format: in vivo, Oryza sativa; details: transplanted rice two-leaf period, water surface treatment 10th day after transplantation, 1 kg active ingredient per hectare, evaluated 21st day, lower index = higher safety
How it was run: as §1

Echinochloa spp. = experiment: Paddy field treatment (Test Example 3); format: in vivo, Echinochloa crusgalli; details: paddy pot, submerged 4 cm, dropped on water surface 10th day after transplantation, 1 kg active ingredient per hectare, evaluated 21st day
How it was run: as §1

soybean (Glycine max) [8] = experiment: Upland soil treatment (Test Example 2), crop; format: in vivo; details: soil surface treatment next day after sowing, 1 kg active ingredient per hectare, evaluated 21st day, lower index = higher safety
How it was run: (§3)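 Pre-emergence soil treatment: day after sowing, WP formulation diluted in water, applied uniformly to soil surface at 1 kg a.i./ha. Seeds sown ~1 cm deep in upland soil. Visual index read 21 d after application (weeds: high = effective; crop: low = safe).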

[9] = test system: wheat (Triticum aestivum); experiment: Upland soil treatment (Test Example 2), crop; format: in vivo; details: soil surface treatment next day after sowing, 1 kg active ingredient per hectare, evaluated 21st day, lower index = higher safety
How it was run: as §3

Stellaria media [10] = experiment: Upland soil treatment (Test Example 2); format: in vivo; details: soil surface treatment next day after sowing, wettable powder, 1 kg active ingredient per hectare, evaluated 21st day after application
How it was run: as §3

Chenopodium album [11] = experiment: Upland soil treatment (Test Example 2); format: in vivo; details: soil surface treatment next day after sowing, wettable powder, 1 kg active ingredient per hectare, evaluated 21st day after application
How it was run: as §3

Setaria viridis [12] = experiment: Upland soil treatment (Test Example 2); format: in vivo; details: soil surface treatment next day after sowing, wettable powder, 1 kg active ingredient per hectare, evaluated 21st day after application
How it was run: as §3

Digitaria adscendens [13] = experiment: Upland soil treatment (Test Example 2); format: in vivo; details: soil surface treatment next day after sowing, wettable powder, 1 kg active ingredient per hectare, evaluated 21st day after application
How it was run: as §3

| SMILES | Herbicidal activity Scirpus juncoides (Scirpus juncoides) | Herbicidal activity Ammannia multiflora (Ammannia multiflora) | Herbicidal activity Monochoria vaginalis (Monochoria vaginalis) | Herbicidal activity Glycine max (soybean (Glycine max) [1]) | Herbicidal activity Triticum aestivum [2] | Herbicidal activity Stellaria media (Stellaria media [3]) | Herbicidal activity Chenopodium album (Chenopodium album [4]) | Herbicidal activity Setaria viridis (Setaria viridis [5]) | Herbicidal activity Digitaria adscendens (Digitaria adscendens [6]) | Herbicidal activity Oryza sativa [7] | Herbicidal activity Echinochloa spp. (Echinochloa spp.) | Herbicidal activity Glycine max (soybean (Glycine max) [8]) | Herbicidal activity Triticum aestivum [9] | Herbicidal activity Stellaria media (Stellaria media [10]) | Herbicidal activity Chenopodium album (Chenopodium album [11]) | Herbicidal activity Setaria viridis (Setaria viridis [12]) | Herbicidal activity Digitaria adscendens (Digitaria adscendens [13]) |
| --- | --- | --- | --- | --- | --- | --- | --- | --- | --- | --- | --- | --- | --- | --- | --- | --- | --- |
| COC=C(Cn1nc(-c2cccc(C)c2)cc1C)C(=O)OC [Compound 3] | 3 (herbicidal effect of not less than 50% by weight and less than 70% by weight) | 4 (herbicidal effect of not less than 70% by weight and less than 90% by weight) | 4 (herbicidal effect of not less than 70% by weight and less than 90% by weight) | 0 (herbicidal effect of not less than 0% by weight and less than 10% by weight) | 0 (herbicidal effect of not less than 0% by weight and less than 10% by weight) | 5 (herbicidal effect of not less than 90% by weight) | 5 (herbicidal effect of not less than 90% by weight) | 5 (herbicidal effect of not less than 90% by weight) | 4 (herbicidal effect of not less than 70% by weight and less than 90% by weight) | 0 (herbicidal effect of not less than 0% by weight and less than 10% by weight) | 3 (herbicidal effect of not less than 50% by weight and less than 70% by weight) | 0 (herbicidal effect of not less than 0% by weight and less than 10% by weight) | 0 (herbicidal effect of not less than 0% by weight and less than 10% by weight) | 4 (herbicidal effect of not less than 70% by weight and less than 90% by weight) | 4 (herbicidal effect of not less than 70% by weight and less than 90% by weight) | 4 (herbicidal effect of not less than 70% by weight and less than 90% by weight) | 4 (herbicidal effect of not less than 70% by weight and less than 90% by weight) |
| COC=C(Cn1nc(-c2ccc(Cl)cc2)c(C)c1C)C(=O)OC [Compound 35] | 3 (herbicidal effect of not less than 50% by weight and less than 70% by weight) | 4 (herbicidal effect of not less than 70% by weight and less than 90% by weight) | 4 (herbicidal effect of not less than 70% by weight and less than 90% by weight) | 0 (herbicidal effect of not less than 0% by weight and less than 10% by weight) | 0 (herbicidal effect of not less than 0% by weight and less than 10% by weight) | 4 (herbicidal effect of not less than 70% by weight and less than 90% by weight) | 4 (herbicidal effect of not less than 70% by weight and less than 90% by weight) | 4 (herbicidal effect of not less than 70% by weight and less than 90% by weight) | 4 (herbicidal effect of not less than 70% by weight and less than 90% by weight) | 0 (herbicidal effect of not less than 0% by weight and less than 10% by weight) | 3 (herbicidal effect of not less than 50% by weight and less than 70% by weight) | 0 (herbicidal effect of not less than 0% by weight and less than 10% by weight) | 0 (herbicidal effect of not less than 0% by weight and less than 10% by weight) | 4 (herbicidal effect of not less than 70% by weight and less than 90% by weight) | 4 (herbicidal effect of not less than 70% by weight and less than 90% by weight) | 4 (herbicidal effect of not less than 70% by weight and less than 90% by weight) | 4 (herbicidal effect of not less than 70% by weight and less than 90% by weight) |
| COC=C(Cn1nc(-c2cccc(Cl)c2Cl)cc1C)C(=O)OC [Compound 6] | 3 (herbicidal effect of not less than 50% by weight and less than 70% by weight) | 3 (herbicidal effect of not less than 50% by weight and less than 70% by weight) | 3 (herbicidal effect of not less than 50% by weight and less than 70% by weight) | 0 (herbicidal effect of not less than 0% by weight and less than 10% by weight) | 0 (herbicidal effect of not less than 0% by weight and less than 10% by weight) | 4 (herbicidal effect of not less than 70% by weight and less than 90% by weight) | 4 (herbicidal effect of not less than 70% by weight and less than 90% by weight) | 4 (herbicidal effect of not less than 70% by weight and less than 90% by weight) | 4 (herbicidal effect of not less than 70% by weight and less than 90% by weight) | 0 (herbicidal effect of not less than 0% by weight and less than 10% by weight) | 4 (herbicidal effect of not less than 70% by weight and less than 90% by weight) | 0 (herbicidal effect of not less than 0% by weight and less than 10% by weight) | 0 (herbicidal effect of not less than 0% by weight and less than 10% by weight) | 4 (herbicidal effect of not less than 70% by weight and less than 90% by weight) | 4 (herbicidal effect of not less than 70% by weight and less than 90% by weight) | 4 (herbicidal effect of not less than 70% by weight and less than 90% by weight) | 4 (herbicidal effect of not less than 70% by weight and less than 90% by weight) |
| COC=C(Cn1nc(-c2ccccc2Cl)c(Br)c1C)C(=O)OC [Compound 27] | 5 (herbicidal effect of not less than 90% by weight) | 5 (herbicidal effect of not less than 90% by weight) | 5 (herbicidal effect of not less than 90% by weight) | 0 (herbicidal effect of not less than 0% by weight and less than 10% by weight) | 0 (herbicidal effect of not less than 0% by weight and less than 10% by weight) | 5 (herbicidal effect of not less than 90% by weight) | 5 (herbicidal effect of not less than 90% by weight) | 4 (herbicidal effect of not less than 70% by weight and less than 90% by weight) | 5 (herbicidal effect of not less than 90% by weight) | 1 (herbicidal effect of not less than 10% by weight and less than 30% by weight) | 5 (herbicidal effect of not less than 90% by weight) | 0 (herbicidal effect of not less than 0% by weight and less than 10% by weight) | 0 (herbicidal effect of not less than 0% by weight and less than 10% by weight) | 5 (herbicidal effect of not less than 90% by weight) | 4 (herbicidal effect of not less than 70% by weight and less than 90% by weight) | 4 (herbicidal effect of not less than 70% by weight and less than 90% by weight) | 5 (herbicidal effect of not less than 90% by weight) |
